Here are results for 2 compounds from patent US9738902B2, “Modified PYR/PYL receptors activated by ligands” (priority 2013, dated 2017).

Experiment [1] addresses T1, PYR1 K59R F108E (Arabidopsis thaliana, UniProt O49686, F108E/K59R).
T1 construct: expressed in transfected cells; host or cells: S. cerevisiae Y190 yeast two-hybrid reporter strain
As to the kind of experiment: Y2H Pocket Library Screen (HAB1, X-gal). The class given is cell-based. The essentials: (§1)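 Y190 yeast co-expressing PYR1 mutants and HAB1 were grown two days at 30 °C on Leu/Trp-minus selective plates with 100 μM test compound. Responsiveness was scored by X-gal staining for β-galactosidase after chloroform lysis.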

The target of experiment [2] is T2, PYR1 K59R F159I (Arabidopsis thaliana, UniProt O49686, F159I/K59R).
T2 construct: expressed in transfected cells; host or cells: S. cerevisiae Y190 two-hybrid reporter strain
In words: Y2H Pocket Library Screen (HAB1, X-gal). The class given is cell-based. The essentials:
as §1

Experiment [3] deals with T3, PYR1 K59R F159L (Arabidopsis thaliana, UniProt O49686, F159L/K59R).
T3 construct: expressed in transfected cells; host or cells: S. cerevisiae Y190
As to the kind of experiment: Y2H Pocket Library Screen (HAB1, X-gal). It counts as cell-based. The essentials: as §1

Experiment [4] concerns the target T4, PYR1 K59R F159V (Arabidopsis thaliana, UniProt O49686, F159V/K59R).
T4 construct: expressed in transfected cells; host or cells: S. cerevisiae Y190
As to the kind of experiment: Y2H Pocket Library Screen (HAB1, X-gal). The class given is cell-based. The essentials:
as §1

For experiment [5], the system named is PYR1 Y58H K59R V81I F108A F159L. In words: Y2H Combinatorial Mutagenesis II (HAB1, X-gal). It counts as cell-based, Arabidopsis. The text has this:
Both of the above optimization experiments led to the identification of the following mutations that, when introduced one at a time, enhance the mandipropamid sensitivity of PYR1^K59R,F108A,S122G: Y58H, V81C, V81I, V81T, V83L, L87A, F159L, F159M, F159V, A160V and V164I. Given that these each enhance sensitivity on their own, we tested if combinations of these mutations might generate more sensitive receptors. Mutagenic primers for each of the mutations were designed and used simultaneously with the QuickChange Lightning Multi Site-Directed Mutagenesis kit (Agilent, USA) with PYR1^K59R,F108A,S122G template DNA. Individual clones were sequenced to identify bona fide combination mutants, which were transformed into the Y190 pACT-HAB1 yeast strain and assayed for mandipropamid sensitivity. These efforts led to the identification of several improved receptors (“Combinatorial Mutagenesis Screen II”, Table 1), including PYR1^Y58H,K59R,V81I,F108A,S122G,F159L, a hextuple mutant that we have named PYR1^MANDI. Yeast reporter strains expressing this mutant are responsive to mandipropamid concentrations as low as 2 nM (Table 1). Thus, the 5-step mutagenesis protocol we followed led to the construction of a mandipropamid responsive receptor with nanomolar sensitivity.

Experiment [6] concerns 35S::PYR1^MANDI transgenic seeds. In words: seed germination on mandipropamid medium. The settings on record: 1 μM mandipropamid. The class given is in vivo, Arabidopsis. The text has this:
(§2) We generated a series of transgenic plants expressing PYR1^MANDI under the control of either the cauliflower mosaic virus 35S or Arabidopsis Rubisco small subunit 3B promoters (RBCS). These were generated for the purpose of examining the physiological efficacy of the PYR1^MANDI-mandipropamid system for regulating ABA responses in planta. The PYR1^MANDI coding sequence was PCR amplified from pBD-PYR1^MANDI template and cloned into the plant transformation vector pEGAD under control of the 35S promoter. For the RBCS driven construct, the 35S promoter in pEGAD was replaced with the RBCS promoter, which was amplified from Arabidopsis genomic DNA by PCR; the pEGAD vector contains a glufosinate resistance gene and allows selection of transgenics in soil using commercially available formulations of glufosinate. These two constructs, p35S::PYR1^MANDI and pRBCS::PYR1^MANDI, were introduced into Agrobacterium tumefacians GV3101 and then used to transform Arabidopsis using the floral dip method (Clough and Bent, 1998) and the resultant seed germinated in soil and treated with glufosinate to identify transformed plants. Seed from approximately 15-16 transgenic plants were harvested individually and then characterized. It is well known that ABA inhibits seed germination. […]

For experiment [7], the system named is RBCS::PYR1^MANDI transgenic seeds. In words: seed germination on mandipropamid medium. The class given is in vivo, Arabidopsis. The settings on record: 1 μM mandipropamid.
Source text: as §2

Experiment [8] has as its system PYR1^MANDI expressing transgenic plants (E15, E16, F29, F34). In words: water loss of detached rosettes. The class given is in vivo, Arabidopsis. To be noted: 2 μM mandipropamid, 24 hours before detachment. How it is done: As another measure of guard cell physiology, we measured rates of water loss in transgenic and control plants exposed to mock or mandipropamid treatments. It is well known that ABA treatments reduce leaf water loss via guard cell closure. 3 week-old homozygous transgenic plants (E15, E16, F29 and F34) and control wild type plants were treated with 2 μM mandipropamid or mock solutions (with 0.02% Silwet as described above). After 24 hours, whole rosettes were detached and their masses monitored over time. […] These experiments, together with the thermal imaging experiments, indicate that mandipropamid can reduce guard cell aperture and reduce transpiration rates in PYR1^MANDI expressing transgenic plants, just as ABA is well known to do to wild type plants.

T2 sequence (O49686 whole entry K59R/F159I): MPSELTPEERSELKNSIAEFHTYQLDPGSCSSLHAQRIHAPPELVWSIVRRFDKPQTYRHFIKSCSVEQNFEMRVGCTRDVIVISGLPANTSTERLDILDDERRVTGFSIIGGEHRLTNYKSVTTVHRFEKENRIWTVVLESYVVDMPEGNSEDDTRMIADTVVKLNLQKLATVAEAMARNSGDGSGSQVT
T2 sequence (Q9CAJ0 23-511, further chain): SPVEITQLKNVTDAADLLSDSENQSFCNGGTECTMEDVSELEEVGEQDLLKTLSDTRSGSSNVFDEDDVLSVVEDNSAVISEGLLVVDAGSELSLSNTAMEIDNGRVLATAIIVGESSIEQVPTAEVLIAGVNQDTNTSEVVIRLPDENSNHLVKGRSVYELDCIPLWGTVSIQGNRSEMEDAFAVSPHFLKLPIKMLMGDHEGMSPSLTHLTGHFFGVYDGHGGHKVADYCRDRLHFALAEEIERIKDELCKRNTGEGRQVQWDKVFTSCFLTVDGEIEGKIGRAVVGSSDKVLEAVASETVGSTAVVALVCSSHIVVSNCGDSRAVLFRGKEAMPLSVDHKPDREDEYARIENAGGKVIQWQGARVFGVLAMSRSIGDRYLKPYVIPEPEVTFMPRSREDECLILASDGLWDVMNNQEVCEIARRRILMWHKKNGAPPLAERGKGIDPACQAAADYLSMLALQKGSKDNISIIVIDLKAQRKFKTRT
T4 sequence (O49686 whole entry K59R/F159V): as the sequence (O49686 whole entry K59R/F159I) above, with I159V counted along it
T4 sequence (Q9CAJ0 23-511, further chain): as the sequence (Q9CAJ0 23-511, further chain) above
T1 sequence (O49686 whole entry K59R/F108E): as the sequence (O49686 whole entry K59R/F159I) above, with F108E, I159F counted along it
T1 sequence (Q9CAJ0 23-511 partner): as the sequence (Q9CAJ0 23-511, further chain) above
T3 sequence (O49686 whole entry K59R/F159L): as the sequence (O49686 whole entry K59R/F159I) above, with I159L counted along it
T3 sequence (Q9CAJ0 23-511, further chain): as the sequence (Q9CAJ0 23-511, further chain) above

With `N#Cc1c(Cl)cccc1Cl` [Dichlobenil, dichlobenil], the Threshold in experiment [1], in experiment [2], in experiment [3] and in experiment [4] was 100 µM in each case.

In the case of `C#CCOc1ccc(CCNC(=O)C(OCC#C)c2ccc(Cl)cc2)cc1OC` (stereo not drawn) [Mandipropamid, mandipropamid], the Threshold in experiment [1] worked out at 100 µM; in experiment [2], 100 µM; in experiment [3], 100 µM; in experiment [4] it was 100 µM; in experiment [5], 0.01 µM. The “transgenic plants whose germination was inhibited by mandipropamid” value in experiment [6] is reported as 5 of the 15; in experiment [7] it was 7 of the 16. The “water loss of detached rosettes” value in experiment [8] is on record as “lower water loss”.
